Experimental data taken from patent publication US10494380B2, “Nitrogen-containing tricyclic derivatives having HIV replication inhibitory activity” (priority 2015, dated 2019).
Where two headings read alike, the source gives them in different places.

Assays:
HIV (HTLV-IIIB strain) = assay: HIV replication inhibition assay (Test Example 1; MT-4 cells, MTT); type: cell-based; settings: MT-4 cells, MTT; for EC50: read-out: EC50; for EC90: read-out: EC90
Summary of the method: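 MT-4 cells (2.5×10^4/well) were infected with HIV HTLV-IIIB (60 pfu) in the presence of compound and cultured 4 days at 37 °C. Cell viability was read by MTT reduction (OD 560/690 nm). EC50 and EC90 are the concentrations inhibiting virus-induced cytotoxicity by 50% and 90%.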

[1] = test system: T125A mutant virus (HIV-1 NL-432 recombinant molecular clone, IN gene); assay: HIV replication inhibition assay against integrase 124/125 mutant virus (Test Example 2); type: cell-based
Summary of the method: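 MT-4 cells (2.5×10^4 per well) infected with 60 pfu of 293T-derived HIV-1 NL-432 clone carrying integrase 124/125 point mutations, in presence of compound, cultured 4 days at 37 °C. Viability by MTT formazan at 560/690 nm; EC50 = concentration inhibiting 50% of virus-induced cytotoxicity.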

HIV = type: cell-based; settings: EC50 in the presence of human serum (25%) versus without human serum, MT-4 cells
Summary of the method: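 Compound is preincubated 1 h at room temperature with human serum, or with medium alone as the serum-free control. MT-4 cells infected with HIV (1 h, 37° C) are added and cultured 4 days. EC50 is determined with and without serum; their ratio gives the potency shift.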

CYP2C9 = CYP2C9 (Homo sapiens (Human), UniProt P11712); assay: CYP inhibition assay, tolbutamide methyl-hydroxylation (Test Example 4); type: in vitro ADME; settings: pooled human hepatic microsome, 100 μmol/L tolbutamide, 15 minutes, 37° C.
CYP2C9, sequence (P11712 whole entry): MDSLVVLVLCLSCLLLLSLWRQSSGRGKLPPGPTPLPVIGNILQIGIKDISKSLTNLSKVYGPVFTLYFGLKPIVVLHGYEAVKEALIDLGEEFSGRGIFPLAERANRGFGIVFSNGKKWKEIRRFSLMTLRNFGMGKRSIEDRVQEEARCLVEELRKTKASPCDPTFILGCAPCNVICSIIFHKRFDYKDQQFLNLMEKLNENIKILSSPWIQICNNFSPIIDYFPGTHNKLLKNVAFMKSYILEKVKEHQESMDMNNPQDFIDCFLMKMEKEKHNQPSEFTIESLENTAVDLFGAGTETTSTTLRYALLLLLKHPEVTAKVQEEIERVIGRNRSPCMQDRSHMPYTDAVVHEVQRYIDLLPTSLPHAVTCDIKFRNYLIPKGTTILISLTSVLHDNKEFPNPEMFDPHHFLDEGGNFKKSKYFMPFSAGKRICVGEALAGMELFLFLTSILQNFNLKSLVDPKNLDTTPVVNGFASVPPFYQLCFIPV
Experimental: Using commercially available pooled human hepatic microsome, and employing, as markers, 7-ethoxyresorufin O-deethylation (CYP1A2), tolbutamide methyl-hydroxylation (CYP2C9), mephenytoin 4′-hydroxylation (CYP2C19), dextromethorphan O-demethylation (CYP2D6), and terfenadine hydroxylation (CYP3A4) as typical substrate metabolism reactions of human main five CYP enzyme forms (CYP1A2, 2C9, 2C19, 2D6, 3A4) an inhibitory degree of each metabolite production amount by a test compound was assessed.
The reaction conditions were as follows: substrate, 0.5 μmol/L ethoxyresorufin (CYP1A2), 100 μmol/L tolbutamide (CYP2C9), 50 μmol/L S-mephenytoin (CYP2C19), 5 μmol/L dextromethorphan (CYP2D6), 1 μmol/L terfenedine (CYP3A4); reaction time, 15 minutes; reaction temperature, 37° C.; enzyme, pooled human hepatic microsome 0.2 mg protein/mL; test drug concentration, 1, 5, 10, 20 μmol/L (four points).
Each five kinds of substrates, human hepatic microsome, and a test drug in 50 mmol/L Hepes buffer as a reaction solution was added to a 96-well plate as the composition ad described above, NADPH, as a coenzyme was added to initiate metabolism reactions as markers and, after the incubation at 37° C. for 15 minutes, a methanol/acetonitrile=1/1 (V/V) solution was added to stop the reaction. After the centrifugation at 3000 rpm for 15 minutes, resorufin (CYP1A2 metabolite) in the supernatant was quantified by a fluorescent multilabel counter and tolbutamide hydroxide (CYP2C9 metabolite), mephenytoin 4′ hydroxide (CYP2C19 metabolite), dextrorphan (CYP2D6 metabolite), and terfenadine alcohol (CYP3A4 metabolite) were quantified by LC/MS/MS.

[2] = test system: sheep red blood cells (RBC); assay: Photohemolysis test (Test Example 13); type: cell-based; settings: 0.0008 to 0.1 w/v %, 10 J/cm2 UV-irradiation (290-400 nm)
Source text: Aliquots of sheep red blood cells (RBC) suspension prepared with medium to make a 2.5 v/v % concentration are dispensed into microplates. The compound of the present invention was desolved with a vehicle to make target concentrations and then these solutions were immediately added (in concentrations of 0.0008 to 0.1 w/v %) into the microplates. The mixtures on the microplates were exposed to 10 J/cm2 of UV-irradiation (UV-A and UV-B, 290-400 nm) with a GL20SE lamp (SANKYO DENKI) and a FL20S-BLB lamp (Panasonic). After the UV-irradiation, the mixtures were centrifuged. Aliquots of supernatant were transferred to a microplate. Absorbance of the supernatants was measured at 540 nm and 630 nm for judgement of the potential of phototoxicity. In the study, two endpoints were evaluated in biomembrane impairment (% of photohemolysis index; PI) and hyperoxidation of lipid membrane (methemoglobin formation; met-Hb) with the absorbance at 540 nm and 630 nm, respectively. PI and met-Hb were assessed based on the negative criteria (−), PI<10% and changes in absorbance at 630 nm<0.05, respectively. All else was judged as positive (+).

CYP3A4 = CYP3A4 (Homo sapiens (Human), UniProt P08684); assay: CYP3A4 (MDZ) MBI test (Test Example 6); settings: pooled human liver microsomes, midazolam 1-hydroxylation, preincubation 0 or 30 min
CYP3A4, sequence (P08684 whole entry): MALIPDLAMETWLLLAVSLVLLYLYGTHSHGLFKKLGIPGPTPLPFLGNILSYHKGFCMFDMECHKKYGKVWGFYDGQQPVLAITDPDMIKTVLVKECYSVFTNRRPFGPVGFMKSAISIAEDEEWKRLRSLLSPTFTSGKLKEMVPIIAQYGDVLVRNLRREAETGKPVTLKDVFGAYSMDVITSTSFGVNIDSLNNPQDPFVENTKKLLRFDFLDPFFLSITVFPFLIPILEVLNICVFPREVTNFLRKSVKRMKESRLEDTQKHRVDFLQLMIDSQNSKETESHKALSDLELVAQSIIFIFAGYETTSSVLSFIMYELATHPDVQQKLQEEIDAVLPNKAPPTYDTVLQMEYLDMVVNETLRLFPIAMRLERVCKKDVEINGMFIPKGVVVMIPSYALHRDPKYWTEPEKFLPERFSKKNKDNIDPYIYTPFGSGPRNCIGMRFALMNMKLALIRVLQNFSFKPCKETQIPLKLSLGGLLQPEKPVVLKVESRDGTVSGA

[3] = Human immunodeficiency virus 1, MT4, 96 h, HIV (HTLV-IIIB strain), four days
[4] = Human immunodeficiency virus 1, MT4, read-out: EC50 against T125A mutant virus, T125A mutant virus (HIV-1 NL-432 IN gene), MT-4 cells, MTT
[5] = Human immunodeficiency virus 1, MT4, 96 h, HIV HTLV-IIIB strain, cultured four days
[6] = HIV (HTLV-IIIB strain), four days
[7] = T125A mutant virus (HIV-1 NL-432 IN gene), MT-4 cells, MTT, read-out: EC50 against T125A mutant virus

| SMILES | EC50 (HIV (HTLV-IIIB strain); [3]) [nM] | EC90 (HIV (HTLV-IIIB strain); [3]) [nM] | EC50 [1, 4] [nM] | Potency shift value (HIV) | IC50 (CYP2C9) [nM] | Photohemolysis test, potential of phototoxicity (PI and met-Hb) [2] | CYP3A4 (MDZ) MBI, shifted IC (CYP3A4) | EC50 (HIV (HTLV-IIIB strain); [5]) [nM] | EC50 (HIV (HTLV-IIIB strain); [6]) [nM] | EC90 (HIV (HTLV-IIIB strain); [6]) [nM] | EC50 [1, 7] [nM] |
| --- | --- | --- | --- | --- | --- | --- | --- | --- | --- | --- | --- |
| Cc1c([C@H](OC(C)(C)C)C(=O)O)c(-c2ccc(Cl)cc2)c2cc(C)n3c2c1N(c1ncc(OCCCN(C)C)cn1)CC3 [Compound I-257] | 7.4 | 8.1 | 28 | 4 | > 20000 | (−) (negative criteria (−), PI<10% and changes in absorbance at 630 nm<0.05, respectively) | (−) (When a shifted IC was 1.0 or less, this was defined as negative) |  |  |  |  |
| CCOc1cnc(N2CCn3c(C)cc4c(-c5ccc(Cl)cc5)c([C@H](OC(C)(C)C)C(=O)O)c(C)c2c43)nc1 [Compound I-181] |  | 2.3 | 3.5 | 17 | > 20000 | (−) (negative criteria (−), PI<10% and changes in absorbance at 630 nm<0.05, respectively) | (−) (When a shifted IC was 1.0 or less, this was defined as negative) | 1.4 |  |  |  |
| Cc1ccc(-c2c([C@H](OC(C)(C)C)C(=O)O)c(C)c3c4c2cc(C)n4CCN3c2ccc(N3CCCC3=O)nn2)cc1 [Compound I-303] |  |  |  | 15 | > 20000 | (−) (negative criteria (−), PI<10% and changes in absorbance at 630 nm<0.05, respectively) | (−) (When a shifted IC was 1.0 or less, this was defined as negative) |  | 1.5 | 4 | 4.3 |
| Cc1c([C@H](OC(C)(C)C)C(=O)O)c(-c2ccc(Cl)cc2)c2cc(C)n3c2c1N(S(C)(=O)=O)[C@@H](CC(F)F)C3 [Compound I-041] | 1.5 | 2.3 | 13 | 4.1 | > 20000 | (−) (negative criteria (−), PI<10% and changes in absorbance at 630 nm<0.05, respectively) | (−) (When a shifted IC was 1.0 or less, this was defined as negative) |  |  |  |  |
| Cc1c([C@H](OC(C)(C)C)C(=O)O)c(-c2ccc(Cl)cc2)c2cc(C)n3c2c1N(c1ncc(OCC2COC2)cn1)CC3 [Compound I-258] | 2.1 | 2.9 | 4.9 | 11 | > 20000 | (−) (negative criteria (−), PI<10% and changes in absorbance at 630 nm<0.05, respectively) | (−) (When a shifted IC was 1.0 or less, this was defined as negative) |  |  |  |  |
| Cc1ccc(-c2c([C@H](OC(C)(C)C)C(=O)O)c(C)c3c4c2cc(C)n4CCN3c2nc3c(s2)CCN(C)C3)cc1 [Compound I-292] | 2.5 | 5.1 | 6.3 | 4.5 | > 20000 | (−) (negative criteria (−), PI<10% and changes in absorbance at 630 nm<0.05, respectively) | (−) (When a shifted IC was 1.0 or less, this was defined as negative) |  |  |  |  |
| Cc1cnc(N2CCn3c(C)cc4c(-c5ccc(Cl)cc5)c([C@H](OC(C)(C)C)C(=O)O)c(C)c2c43)nc1 [Compound I-190] | 0.83 | 1.3 | 2.1 | 21 | > 20000 | (−) (negative criteria (−), PI<10% and changes in absorbance at 630 nm<0.05, respectively) | (−) (When a shifted IC was 1.0 or less, this was defined as negative) |  |  |  |  |
| Cc1ccc(-c2c([C@H](OC(C)(C)C)C(=O)O)c(C)c3c4c2cc(C)n4CCN3c2ncc(OCCCN(C)C)cn2)cc1 [Compound I-267] | 11 | 18 | 26 | 4 | > 20000 | (−) (negative criteria (−), PI<10% and changes in absorbance at 630 nm<0.05, respectively) | (−) (When a shifted IC was 1.0 or less, this was defined as negative) |  |  |  |  |
| Cc1ccc(-c2c(C(OC(C)(C)C)C(=O)O)c(C)c3c4c2cc(C)n4CCN3CCN(C)C)cc1 (stereo not shown) [Compound I-027] |  |  |  | 1.4 | > 20000 | (−) (negative criteria (−), PI<10% and changes in absorbance at 630 nm<0.05, respectively) | (−) (When a shifted IC was 1.0 or less, this was defined as negative) |  | 9.9 | 16 | 26 |
| Cc1ccc(-c2c([C@H](OC(C)(C)C)C(=O)O)c(C)c3c4c2cc(C)n4CCN3c2ncc(OCCN(C)C)cn2)cc1 [Compound I-220] |  |  |  | 3.7 | > 20000 | (−) (negative criteria (−), PI<10% and changes in absorbance at 630 nm<0.05, respectively) | (−) (When a shifted IC was 1.0 or less, this was defined as negative) |  | 6 | 11 | 14 |
| Cc1ccc(-c2c([C@H](OC(C)(C)C)C(=O)O)c(C)c3c4c2cc(C)n4CCN3c2nc3c(s2)CN(C)CC3)cc1 [Compound I-293] | 3.1 | 5.5 | 9.3 | 4.8 | > 20000 | (−) (negative criteria (−), PI<10% and changes in absorbance at 630 nm<0.05, respectively) | (−) (When a shifted IC was 1.0 or less, this was defined as negative) |  |  |  |  |
| COc1cnc(N2CCn3c(C)cc4c(-c5ccc(Cl)cc5)c([C@H](OC(C)(C)C)C(=O)O)c(C)c2c43)nc1 [Compound I-156] | 0.85 | 1.2 | 3.6 | 12 | > 20000 | (−) (negative criteria (−), PI<10% and changes in absorbance at 630 nm<0.05, respectively) | (−) (When a shifted IC was 1.0 or less, this was defined as negative) |  |  |  |  |
| Cc1ccc(-c2c([C@H](OC(C)(C)C)C(=O)O)c(C)c3c4c2cc(C)n4C(C)CN3CCN(C)C)cc1 (single isomer, unassigned) [Compound I-164] |  | 20 | 42 | 2.6 | > 20000 | (−) (negative criteria (−), PI<10% and changes in absorbance at 630 nm<0.05, respectively) | (−) (When a shifted IC was 1.0 or less, this was defined as negative) | 11 |  |  |  |
